Reference: ChEMBL document CHEMBL1152667, “Synthesis and radiopharmacological investigation of 3-[4'-[(18)F]fluorobenzylidene]indolin-2-one as possible tyrosine kinase inhibitor” (Bioorg Med Chem, 2009)

What was measured:
[1] = Metabolic stability in Wistar rat blood assessed as compound remaining at 30 MBq, iv after 5 mins by radio-HPLC analysis; format: ADME, organism-based; settings: read-out: Stability
Femur [2] = assay: Biodistribution in Wistar rat femur assessed as standard uptake value at 1.7 MBq, iv administered as single dose measured after 30 mins post-injection by gamma counting; format: ADME, organism-based; settings: in vivo, 0.5 h
Adrenal gland [3] = assay: Biodistribution in Wistar rat adrenal gland at 1.7 MBq, iv administered as single dose measured after 30 mins post-injection by gamma counting; format: ADME, organism-based; settings: in vivo, 0.5 h
Heart [4] = assay: Biodistribution in Wistar rat heart at 1.7 MBq, iv administered as single dose measured after 60 mins post-injection by gamma counting; format: ADME, organism-based; settings: in vivo, 1 h
Femur [5] = assay: Biodistribution in Wistar rat femur assessed as standard uptake value at 1.7 MBq, iv administered as single dose measured after 5 mins post-injection by gamma counting; format: ADME, organism-based; settings: in vivo
Harderian gland [6] = assay: Biodistribution in Wistar rat harderian gland at 1.7 MBq, iv administered as single dose measured after 5 mins post-injection by gamma counting; format: ADME, organism-based; settings: in vivo
[7] = Ratio of drug level in lung to blood in Wistar rat at 1.7 MBq, iv administered as single dose measured after 60 mins post-injection; format: ADME, organism-based
Spleen [8] = assay: Biodistribution in Wistar rat spleen assessed as standard uptake value at 1.7 MBq, iv administered as single dose measured after 30 mins post-injection by gamma counting; format: ADME, organism-based; settings: in vivo, 0.5 h
Thymus [9] = assay: Biodistribution in Wistar rat thymus assessed as standard uptake value at 1.7 MBq, iv administered as single dose measured after 10 mins post-injection by gamma counting; format: ADME, organism-based; settings: in vivo
Brain [10] = assay: Biodistribution in Wistar rat brain assessed as standard uptake value at 1.7 MBq, iv administered as single dose measured after 5 mins post-injection by gamma counting; format: ADME, organism-based; settings: in vivo
Harderian gland [11] = assay: Biodistribution in Wistar rat harderian gland assessed as standard uptake value at 1.7 MBq, iv administered as single dose measured after 1 min post-injection by gamma counting; format: ADME, organism-based; settings: in vivo
Heart [12] = assay: Biodistribution in Wistar rat heart assessed as standard uptake value at 1.7 MBq, iv administered as single dose measured after 60 mins post-injection by gamma counting; format: ADME, organism-based; settings: in vivo, 1 h
[13] = Biodistribution in Wistar rat urine at 1.7 MBq, iv administered as single dose measured after 5 mins post-injection by gamma counting; format: ADME, organism-based; settings: in vivo
Blood = assay: Metabolic stability in Wistar rat blood at 30 MBq, iv after 60 mins by radio-HPLC analysis; format: ADME, organism-based; settings: in vivo, 1 h
[14] = Ratio of drug level in brain to blood in Wistar rat at 1.7 MBq, iv administered as single dose measured after 5 mins post-injection; format: ADME, organism-based
Heart [15] = assay: Biodistribution in Wistar rat heart assessed as standard uptake value at 1.7 MBq, iv administered as single dose measured after 10 mins post-injection by gamma counting; format: ADME, organism-based; settings: in vivo
Thymus [16] = assay: Biodistribution in Wistar rat thymus at 1.7 MBq, iv administered as single dose measured after 1 min post-injection by gamma counting; format: ADME, organism-based; settings: in vivo
Liver = assay: Biodistribution in Wistar rat liver assessed as standard uptake value at 1.7 MBq, iv administered as single dose measured after 60 mins post-injection by gamma counting; format: ADME, organism-based; settings: in vivo, 1 h
[17] = Ratio of drug level in liver to blood in Wistar rat at 1.7 MBq, iv administered as single dose measured after 60 mins post-injection; format: ADME, organism-based
Lung [18] = assay: Biodistribution in Wistar rat lung at 1.7 MBq, iv administered as single dose measured after 1 min post-injection by gamma counting; format: ADME, organism-based; settings: in vivo
[19] = Biodistribution in Wistar rat brown adipose tissue assessed as standard uptake value at 1.7 MBq, iv administered as single dose measured after 5 mins post-injection by gamma counting; format: ADME, organism-based; settings: in vivo
Thymus [20] = assay: Biodistribution in Wistar rat thymus at 1.7 MBq, iv administered as single dose measured after 10 mins post-injection by gamma counting; format: ADME, organism-based; settings: in vivo
Testes = assay: Biodistribution in Wistar rat testes at 1.7 MBq, iv administered as single dose measured after 5 mins post-injection by gamma counting; format: ADME, organism-based, Testis; settings: in vivo
Femur [21] = assay: Biodistribution in Wistar rat femur assessed as standard uptake value at 1.7 MBq, iv administered as single dose measured after 10 mins post-injection by gamma counting; format: ADME, organism-based; settings: in vivo
[22] = Biodistribution in Wistar rat thyroid gland assessed as standard uptake value at 1.7 MBq, iv administered as single dose measured after 60 mins post-injection by gamma counting; format: ADME, organism-based; settings: in vivo, 1 h
[23] = Biodistribution in Wistar rat hair/skin assessed as standard uptake value at 1.7 MBq, iv administered as single dose measured after 10 mins post-injection by gamma counting; format: ADME, organism-based; settings: in vivo
[24] = Metabolic stability in Wistar rat plasma assessed as compound remaining at 0.5 MBq after 60 mins by radio-HPLC analysis; format: ADME, cell-free; settings: read-out: Stability
[25] = Biodistribution in Wistar rat thyroid gland at 1.7 MBq, iv administered as single dose measured after 1 min post-injection by gamma counting; format: ADME, organism-based; settings: in vivo
Spleen [26] = assay: Biodistribution in Wistar rat spleen at 1.7 MBq, iv administered as single dose measured after 5 mins post-injection by gamma counting; format: ADME, organism-based; settings: in vivo
[27] = Biodistribution in Wistar rat adipose tissue assessed as standard uptake value at 1.7 MBq, iv administered as single dose measured after 60 mins post-injection by gamma counting; format: ADME, organism-based; settings: in vivo, 1 h
Adrenal gland [28] = assay: Biodistribution in Wistar rat adrenal gland at 1.7 MBq, iv administered as single dose measured after 1 min post-injection by gamma counting; format: ADME, organism-based; settings: in vivo
Heart [29] = assay: Biodistribution in Wistar rat heart at 1.7 MBq, iv administered as single dose measured after 10 mins post-injection by gamma counting; format: ADME, organism-based; settings: in vivo
Heart [30] = assay: Biodistribution in Wistar rat heart at 1.7 MBq, iv administered as single dose measured after 30 mins post-injection by gamma counting; format: ADME, organism-based; settings: in vivo, 0.5 h
[31] = Biodistribution in Wistar rat hair/skin assessed as standard uptake value at 1.7 MBq, iv administered as single dose measured after 1 min post-injection by gamma counting; format: ADME, organism-based; settings: in vivo
Lung [32] = assay: Biodistribution in Wistar rat lung at 1.7 MBq, iv administered as single dose measured after 30 mins post-injection by gamma counting; format: ADME, organism-based; settings: in vivo, 0.5 h
[33] = Biodistribution in Wistar rat adipose tissue assessed as standard uptake value at 1.7 MBq, iv administered as single dose measured after 5 mins post-injection by gamma counting; format: ADME, organism-based; settings: in vivo
Kidney = assay: Biodistribution in Wistar rat kidney assessed as standard uptake value at 1.7 MBq, iv administered as single dose measured after 60 mins post-injection by gamma counting; format: ADME, organism-based; settings: in vivo, 1 h
[34] = Metabolic stability in Wistar rat blood assessed as compound remaining at 30 MBq, iv after 20 mins by radio-HPLC analysis; format: ADME, organism-based; settings: read-out: Stability
Brain [35] = assay: Biodistribution in Wistar rat brain assessed as standard uptake value at 1.7 MBq, iv administered as single dose measured after 60 mins post-injection by gamma counting; format: ADME, organism-based; settings: in vivo, 1 h
Femur [36] = assay: Biodistribution in Wistar rat femur at 1.7 MBq, iv administered as single dose measured after 30 mins post-injection by gamma counting; format: ADME, organism-based; settings: in vivo, 0.5 h
Lung [37] = assay: Biodistribution in Wistar rat lung at 1.7 MBq, iv administered as single dose measured after 10 mins post-injection by gamma counting; format: ADME, organism-based; settings: in vivo
[38] = Ratio of drug level in harderian gland to blood in Wistar rat at 1.7 MBq, iv administered as single dose measured after 5 mins post-injection; format: ADME, organism-based
[39] = Biodistribution in Wistar rat urine at 1.7 MBq, iv administered as single dose measured after 10 mins post-injection by gamma counting; format: ADME, organism-based; settings: in vivo

remaining at 5 min [1]: 40%
SUV (Femur [2]): 0.28%
Drug uptake (Adrenal gland [3]): 0.04 %ID
Drug uptake (Heart [4]): 0.08 %ID
SUV (Femur [5]): 0.64%
Drug uptake (Harderian gland [6]): 0.34 %ID
Kp at 1 h [7]: 1.4
SUV (Spleen [8]): 0.28%
SUV (Thymus [9]): 0.53%
SUV (Brain [10]): 1.67%
SUV (Harderian gland [11]): 1.92%
SUV (Heart [12]): 0.2%
Drug uptake [13]: 2.39 %ID
Stability (Blood): Unstable
Kp at 5 min [14]: 3
SUV (Heart [15]): 0.88%
Drug uptake (Thymus [16]): 0.5 %ID
SUV (Liver): 1.3%
Kp at 1 h [17]: 7.9
Drug uptake (Lung [18]): 2.68 %ID
SUV [19]: 2.29%
Drug uptake (Thymus [20]): 0.23 %ID
Drug uptake (Testes): 0.38 %ID
SUV (Femur [21]): 0.51%
SUV [22]: 0.16%
SUV [23]: 0.74%
remaining at 1 h, 0.5 MBq [24]: 96%
Drug uptake [25]: 0.09 %ID
Drug uptake (Spleen [26]): 0.23 %ID
SUV [27]: 1.15%
Drug uptake (Adrenal gland [28]): 0.15 %ID
Drug uptake (Heart [29]): 0.35 %ID
Drug uptake (Heart [30]): 0.18 %ID
SUV [31]: 0.67%
Drug uptake (Lung [32]): 0.33 %ID
SUV [33]: 1.21%
SUV (Kidney): 0.99%
remaining at 20 min [34]: 12%
SUV (Brain [35]): 0.18%
Drug uptake (Femur [36]): 0.13 %ID
Drug uptake (Lung [37]): 0.66 %ID
Kp at 5 min [38]: 4.4
Drug uptake [39]: 6.98 %ID
SMILES: O=C1Nc2ccccc2/C1=C/c1ccc([18F])cc1
